Results published in patent EP4647069A1, “DRUGS AND COMPOSITIONS FOR USE IN THE TREATMENT OF RETT SYNDROME” (UNIVERSITA' DEGLI STUDI DI TRIESTE, priority 2024, dated 2025).

Tests used:
[1] = test system: MeCP2-KO mouse hippocampal neurons; assay: Phenotypic neuronal atrophy screening in miniaturized 96-well cultures, treatment DIV 3 to DIV 6 (MAP2/NeuN, NeuriteQuant); format: cell-based; settings: for total dendritic length (TDL) / terminal branches (EP): individually or in combination; for minimal effective concentration: Mus musculus, Hippocampal neuron, individual drugs, DIV 3 to DIV 6, read-out: minimum effective concentration in the in vitro assays
Procedure: Three morphological parameters were measured: 1) the area of the neuronal cell body (soma), 2) the total dendritic length (TDL), 3) the number of dendritic endpoints (EP).
The Kruskall-Wallis test was also performed in this phase, in order to compare non-parametric data between more than two groups: *p <0.05, **p<0.01, ***p<0.001.
To quantify the effects of the interactions, the same morphological parameters used to test the individual drugs at DIV 6 were measured, namely total dendritic length (TDL) and the number of terminal branches (EP = Endpoints).

[2] = in vivo; cited from earlier work

C=C1/C(=C\C=C2/CCC[C@]3(C)[C@@H]([C@H](C)/C=C/[C@@H](O)C4CC4)CC[C@@H]23)C[C@@H](O)C[C@@H]1O [calcipotriene]
total dendritic length (TDL) ([1]; 1 µM, DIV 3 to DIV 6 (fig. 5A, 5B)): no positive effect
terminal branches (EP) ([1]; 1 µM, DIV 3 to DIV 6 (fig. 5C, 5D)): no positive effect
minimal effective concentration [1]: 10 µM

O=c1[nH]c(=O)n([C@H]2C[C@H](O)[C@@H](CO)O2)cc1I [idoxuridine]
total dendritic length (TDL) ([1]; 0.1 µM, DIV 3 to DIV 6 (fig. 6A, 6B)): no positive effect
terminal branches (EP) ([1]; 0.1 µM, DIV 3 to DIV 6 (fig. 6C, 6D)): no positive effect
minimal effective concentration [1]: 10 µM

Cc1ccc(C(=O)c2cc(O)c(O)c([N+](=O)[O-])c2)cc1 [tolcapone]
capabilities to penetrate the blood-brain barrier [2]: excellent
half-life [2]: 2.9 h
